The values that follow come from US8143226B2, “Tyrosine kinase receptor antagonists and methods of treatment for breast cancer” (The Regents of the University of California, priority 2005, dated 2012).

Like-named read-outs stand apart in the source and are kept apart here.

The target in data set [1] is T1, IGF-1R kinase domain peptide (Homo sapiens, UniProt P08069).
T1 construct: purchased Upstate, USA (Charlottesville, Va.)
Description: IGF-1R kinase domain peptide autophosphorylation (western blot). It is filed as biochemical. To be noted: peptide incubated with NDGA prior to 20 μM ATP. The method, then: ATP was then added at a final concentration of 20 μM. Autophosphorylation of peptide was allowed to occur for 20 min at 22° C. The reaction was stopped by the addition of SDS-reducing buffer, and the samples were run on SDS-PAGE. Following transfer to nitrocellulose membrane, peptide autophosphorylation was determined by western blotting employing an antibody against phosphotyrosine diluted to 0.5 μg/ml in phosphate buffered saline (PBS) containing 3% milk. The membrane was incubated with the antibody overnight at 4 C. Next, blots were washed 3 times with PBS, then incubated with HRP conjugated sheep anti-rabbit IgG (Amersham, Piscataway, N.J.) diluted 1:50,000 in PBS with 3% milk for 90 minutes at room temperature. After washing, blots were incubated with Super-Signal (Pierce, Rockford, Ill.), and exposed to film. Values were determined by scanning densitometry.
For orientation: Immunoblotting shows a protein as a band on a membrane.

The next data set has as its system MCNeuA tumor cells. Put plainly: Growth of MCNeuA tumors in neuTg mice. The data set is classed as in vivo, mouse. As to conditions: combined oral 100 mg/kg and i.p. 37.5 mg/kg groups, from 21 days post-implantation. The text has this: All animal studies complied with protocols approved by of the Institutional Animal Care and Use Committee of the University of California, San Francisco. Our syngeneic model studies utilized the FVB/N-TgN(MMTVneu)202 mouse strain developed by Muller and colleagues (Guy CT, Webster MA, Schaller M, Parsons TJ, Cardiff RD, Muller WJ: Expression of the neu protooncogene in the mammary epithelium of transgenic mice induces metastatic disease. Proc Natl Acad Sci USA 89:10578-10582, 1992). This strain, denoted hereafter as neuTg, expresses the wild-type rat neu proto-oncogene (a homologue of human HER2) under the control of the mouse mammary tumor virus (MMTV) long terminal repeat (LTR) on an FVB mouse background. The MCNeuA mammary carcinoma cell line employed in these studies was derived from a spontaneously arising tumor in a neuTg female mouse (Campbell MJ, Wollish WS, Lobo […] LJ: Epithelial and fibroblast cell lines derived from a spontaneous mammary carcinoma in a MMTV/neu transgenic mouse. In Vitro Cell Dev Biol Anim 38:326-333, 2002). These cells are tumorigenic when transplanted back into neuTg mice. […] This solution was kept warm at 37° C. until given to mice by i.p. injection. […] Tumor growth was measured at the time of drug delivery on alternate treatment days with calipers and volume calculated using the equation: (length×width^2)*(π/6). […]

The next data set relates to Akt/BAD pathway. Put plainly: IGF-1 stimulated Akt and BAD phosphorylation in MCF-7 cells (western blot). It is filed as cell-based, human. To be noted: 1 nM IGF-1. The method, then:
Inhibition of IGF-1-stimulated activation of serine kinase Akt was determined in the lysates prepared for the IGF-1R phosphotyrosine ELISA described above. 12 μg of sample was subjected to SDS-PAGE, transfer-ed to a nitrocellulose membrane, and […] quantified by blotting overnight at 4 C with a phospho-specific antibody to Akt (ser473) diluted 1:1000 in Superblock. Next, blots were washed with 3 times with TBST, then incubated with HRP conjugated sheep anti-rabbit IgG diluted 1:10,000 in Superblock for 90 minutes at room temperature. Phosphorylation of the apoptotic protein BAD was determined in the same manner by blotting with a phospho-specific antibody to BAD (ser136) (1:1,000).

The next data set concerns ERK 1 and 2. Put plainly: IGF-stimulated ERK phosphorylation in neuroblastoma cells. It is filed as cell-based, human. As to conditions: SH-SY5Y cells, NDGA 1 h, 10 nM IGF-I 15 min. The method, then: Detection of phospho-Akt and phospho-Erk. […] Then, some cultures were treated with 10 nM IGF-I for 15 min. Cultures were immediately placed on ice, the medium was removed, and the cells were lysed in modified RIPA buffer (20 mM Tris, 150 mM NaCl, 1 mM EDTA, 1 mM EGTA, 1% Triton X-100, 0.1% sodium dodecyl sulfate, and 1% deoxycholate). Fifty μg of protein from each sample were separated via SDS-PAGE and transfened to nitrocellulose. Phospho- and total-Akt and -Erk were detected by immunoblotting.

Another data set concerns caspase-3. Description: Caspase-3 cleavage in SH-SY5Y cells. The data set is classed as cell-based, human. As to conditions: SH-SY5Y cells in serum, 6 h. An excerpt: Detection of Caspase-3 cleavage. […] Lysates were collected as described above, and the 14/17 kD cleavage fragments of caspase-3 were detected via SDS-PAGE followed by immunoblotting with anti-cleaved caspase-3 antibody.

The test system of the next data set is MCF-7/HER2-18 cells. Description: Growth of MCF-7/HER2-18 cells with RTK inhibitors, 6 days (CyQuant). It is filed as cell-based, human. To be noted: read-out: one half maximal effect on growth. The protocol:
MCF-7/neo or MCF-7/HER2-18 cells were plated in 96 well plates (4×10^3 cells/well) in 100 μl/well of DMEM-10 medium. […] Media with inhibitors was refreshed on day 3 and the cultures were harvested on day 6. The plates were inverted onto paper towels with gentle blotting to remove growth medium without disrupting adherent cells. Each plate was kept at −80° C. until assayed for cell growth. After thawing the plate at room temperature, 200 μl of CyQuant GR solution was added to each well and the plates were incubated in the dark for five minutes. Fluorescence was measured with a SpectraMax Gemini XS fluorescence microplate reader (Molecular Devices) with 480-nm excitation and 520-nm emission.

The test system of a further data set is IGF-1. Put plainly: IGF-1 activation in pancreatic cancer cells. It is filed as cell-based.
The conditions of data set [2]: pure NDGA; cited from earlier work.
The target in a further data set is EGF receptor (Homo sapiens, UniProt P00533). As to conditions: Seufferlein et al. 2002; cited from earlier work.
Chain of EGF receptor (P00533 25-1210): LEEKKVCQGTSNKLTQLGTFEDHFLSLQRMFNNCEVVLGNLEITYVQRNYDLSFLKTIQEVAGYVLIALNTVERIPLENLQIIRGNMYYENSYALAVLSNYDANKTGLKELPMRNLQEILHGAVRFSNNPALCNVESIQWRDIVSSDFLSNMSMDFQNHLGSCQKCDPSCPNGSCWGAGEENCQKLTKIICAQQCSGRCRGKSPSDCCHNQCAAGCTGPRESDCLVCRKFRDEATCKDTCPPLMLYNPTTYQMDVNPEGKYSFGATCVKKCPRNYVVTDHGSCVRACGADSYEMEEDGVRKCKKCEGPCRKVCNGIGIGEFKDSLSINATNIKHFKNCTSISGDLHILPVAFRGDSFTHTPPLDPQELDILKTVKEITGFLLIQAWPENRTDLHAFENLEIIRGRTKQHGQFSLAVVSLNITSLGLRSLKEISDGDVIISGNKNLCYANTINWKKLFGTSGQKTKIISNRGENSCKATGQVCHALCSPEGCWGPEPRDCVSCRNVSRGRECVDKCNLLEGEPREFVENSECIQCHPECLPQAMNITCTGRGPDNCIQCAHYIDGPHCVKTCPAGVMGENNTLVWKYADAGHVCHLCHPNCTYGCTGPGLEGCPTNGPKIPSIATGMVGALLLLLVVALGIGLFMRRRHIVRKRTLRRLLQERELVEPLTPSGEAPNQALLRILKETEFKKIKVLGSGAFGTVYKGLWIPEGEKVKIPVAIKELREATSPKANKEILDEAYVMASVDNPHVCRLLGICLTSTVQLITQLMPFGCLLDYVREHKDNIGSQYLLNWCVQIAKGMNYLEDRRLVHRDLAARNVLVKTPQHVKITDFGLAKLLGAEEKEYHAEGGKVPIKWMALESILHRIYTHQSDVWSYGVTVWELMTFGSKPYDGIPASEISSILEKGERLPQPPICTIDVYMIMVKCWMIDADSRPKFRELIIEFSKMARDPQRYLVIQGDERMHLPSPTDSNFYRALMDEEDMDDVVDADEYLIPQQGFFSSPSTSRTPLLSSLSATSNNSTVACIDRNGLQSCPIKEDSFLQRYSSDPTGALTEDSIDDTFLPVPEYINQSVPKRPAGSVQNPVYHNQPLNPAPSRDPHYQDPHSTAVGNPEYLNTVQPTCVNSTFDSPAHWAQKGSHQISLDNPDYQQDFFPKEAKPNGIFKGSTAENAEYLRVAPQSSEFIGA

T1 sequence (P08069 989-1367): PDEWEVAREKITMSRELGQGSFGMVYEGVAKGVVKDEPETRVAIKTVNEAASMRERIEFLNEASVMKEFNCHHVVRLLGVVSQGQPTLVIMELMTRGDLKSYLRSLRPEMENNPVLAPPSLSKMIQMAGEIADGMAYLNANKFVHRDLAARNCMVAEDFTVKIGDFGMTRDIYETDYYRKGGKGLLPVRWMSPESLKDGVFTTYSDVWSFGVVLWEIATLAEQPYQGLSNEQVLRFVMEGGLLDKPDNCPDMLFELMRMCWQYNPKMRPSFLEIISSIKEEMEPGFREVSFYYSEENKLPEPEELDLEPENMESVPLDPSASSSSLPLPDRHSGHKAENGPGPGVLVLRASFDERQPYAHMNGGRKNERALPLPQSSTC

For `CC(Cc1ccc(O)c(O)c1)C(C)Cc1ccc(O)c(O)c1` (stereo not shown) [NDGA, nordihydroguaiaretic acid], the “concentration at which activation of the IGF-1R kinase domain was inhibited” value in data set [1] was 1 µM. Besides, in the data set with MCNeuA tumor cells, the tumor growth result is “significantly reduced”. Further, the “IGF-1 stimulated phosphorylation of Akt and BAD” value in the data set with Akt/BAD pathway was “reduced in a dose-dependent manner”. For the same compound, the “IGF-stimulated phosphorylation of ERK” value with ERK 1 and 2 is “dose-dependent inhibitory effect”. Moreover, in the data set with caspase-3, the caspase-3 activation entry is “dose-dependent caspase-3 activation”. Also, the IC50 in the data set with MCF-7/HER2-18 cells (Homo sapiens, 144 h) is 12.5 µM; with MCF-7/HER2-18 cells, 10 to 20 µM. Moreover, the IGF-1 activation entry in the data set with IGF-1 is given as “inhibiting”. Also, the toxicity entry in data set [2] is reported as “minimal toxicity”. In addition, the EGF receptor phosphorylation result on EGF receptor is reported as “no affect”.
